Patent US6617313B1, “Glucopyranoside and process of isolation thereof from pterocarpus marsupium pharmaceutical composition containing the same and use thereof” (Council of Scientific and Industrial Research, priority 2002, dated 2003)

Key:
[1] = test system: pancreatic beta cells; details: effect due to regeneration of pancreatic beta cells; claim questioned by Kolb et al and Sheehan et al; cited from earlier work
[2] = hypoglycaemic / anti-diabetic activity of the isolated compound (no test described); details: stated without test details

melting point [°C] | Structure (SMILES) | hypoglycemic principle [1] | hypoglycaemic activity [2] | anti-diabetic activity ([2]; listed as 2,6-dihydroxy-2-(P-hydroxybenzyl)-3(2H)benzofuran-7-C-β-D-glucopyranoside) | anti-diabetic activity ([2]; listed as 2,6-dihydroxy-2-(p-hydroxybenzyl)-3(2H)benzofuran-7-C-β-D-glucopyranoside)
 | Oc1cc(O)c2c(c1)O[C@H](c1ccc(O)c(O)c1)[C@H](O)C2 [(−)-epicatechin] | active hypoglycemic principle |  |  | 
157 to 158 | O=C1c2ccc(O)c(C3OC(CO)C(O)C(O)C3O)c2OC1(O)Cc1ccc(O)cc1 [formula 1, 2,6-dihydroxy-2-(P-hydroxybenzyl)-3(2H)benzofuran-7-C-β-D-glucopyranoside] |  | shows hypoglycaemic activity | possesses anti-diabetic activity | antidiabetic activity
